Assay results reported in patent US20060169172A1, “Disazo compound and ink composition containing the same” (priority 2003, published 2006).

How the values were obtained:
Format in all cases: physicochemical
[1] = Test for ozone fastness (ozone weather meter); details: 24° C., 12 ppm, 60% RH, 2 hours
Procedure: (§1) The solution of the composition shown in Table 2 below, containing the disazo compound (a dyestuff component) obtained in Example 1 or 2 was prepared and filtered with a 0.45 μm membrane filter to obtain each water-based yellow ink composition for ink-jet printing. Ion-exchange water was used. Water and ammonium hydroxide were added so that the pH of the ink composition is 8 to 10 and the total amount is 100 parts.
(§2) Ink-jet recording is carried out on four kinds of recording materials of plain paper, Professional photo paper (PR-101 (made by Canon Inc.)), Photo glossy film (HG-201 (made by Canon Inc.)) and Paper for PM photo (made by SEIKO EPSON CORP.), using an ink-jet printer (Trade name: BJ S-630 from Canon Inc.) (hereinafter, described as follows, PR: Professional photo paper, HG: Photo glossy film, PM: Paper for PM photo).
(§3) A sample piece having a recorded image printed on the sample piece was left for standing at 24° C., 12 ppm and 60% RH for 2 hours using an ozone weather meter (Model OMS-H made by Suga Test Instruments Co., Ltd.). Densities (D values) before and after the test were measured. (4) A sample piece having a recorded image printed on the sample piece for a moisture fastness test was left for standing at 50° C. and 90% RH for 150 hours in a thermo-hygrostat (made by Ouyou giken sangyou Corp.). Bleeding degrees before and after the test was evaluated by visual inspection.
(§4) The results of evaluation of the ink composition prepared using the compound obtained in Example 1 are referred to Evaluation Example 1, and similarly the results of evaluation of the ink composition prepared using the compound obtained in Example 2 are referred to Evaluation Example 2. The compound represented by the following formula (6) and the compound represented by the following formula (7) were used as Comparative Example 1 and Comparative Example 2 and those were evaluated at the same optical density as those of Evaluation Examples 1 and 2 in the composition shown in Table 2.

[2] = Test for light fastness (xenon weather meter); details: 24° C., 60% RH, 50 hours
Procedure: as §1, §2
The recorded image was irradiated at 24° C. and 60% RH for 50 hours using a xenon weather meter (made by Atlas Corp.). Densities (D values) of the images before and after the irradiation were measured by means of the above calorimetric system.
Residual ratio (%)=D value after irradiation/D value before irradiation
as §4

[3] = Moisture fastness test (bleeding, visual inspection); set-up: key: ◯: No bleeding is observed.; Δ: Bleeding is a little observed.; X: Bleeding is seriously observed; details: 50° C., 90% RH, 150 hours
Procedure: as §1, §2, §3
◯: No bleeding is observed.
Δ: Bleeding is a little observed.
X: Bleeding is seriously observed.
as §4

Structure (SMILES)	Ozone Fastness (residual ratio) ([1]; HG (Photo glossy film))	Ozone Fastness (residual ratio) ([1]; PM (Paper for PM photo))	Ozone Fastness (residual ratio) ([1]; PR (Professional photo paper))	Ozone Fastness (residual ratio) ([1]; Plain Paper)	Light Fastness (residual ratio) ([2]; HG (Photo glossy film))	Light Fastness (residual ratio) ([2]; PM (Paper for PM photo))	Light Fastness (residual ratio) ([2]; PR (Professional photo paper))	Light Fastness (residual ratio) ([2]; Plain Paper)	Moisture Fastness ([3]; HG (Photo glossy film))	Moisture Fastness ([3]; PM (Paper for PM photo))	Moisture Fastness ([3]; PR (Professional photo paper))	Moisture Fastness ([3]; Plain Paper)
COc1cc(N=Nc2cccc(S(=O)(=O)[O-])c2)ccc1NC(=O)Nc1ccc(N=Nc2cccc(S(=O)(=O)[O-])c2)cc1OC.[Na+].[Na+] [Comparative Example 2]	74%	97%	82%	98%	63%	94%	82%	81%	Δ	X	◯	◯
COc1cc(N=Nc2cccc(S(=O)(=O)[O-])c2)ccc1Nc1nc(Nc2ccc(N=Nc3cccc(S(=O)(=O)[O-])c3)cc2OC)nc(N(CCO)CCO)n1.[Na+].[Na+] [Comparative Example 1]	91%	97%	89%	99%	67%	86%	80%	78%	◯-Δ	◯-Δ	◯	◯
